Source: ChEMBL document CHEMBL4007499, “Anti-influenza triterpenoid saponins (saikosaponins) from the roots of Bupleurum marginatum var. stenophyllum” (Bioorg Med Chem Lett, 2017)

Legend:
[1] = Cytotoxicity against human 293T cells expressing Gluc assessed as inhibition of cell proliferation at 20 uM after 24 hrs by CCK8 assay relative to control; format: cell-based; conditions: 293T (HEK-293T) cells expressing Gluc
[2] = Cytotoxicity against human 293T cells expressing Gluc assessed as inhibition of cell proliferation after 24 hrs by CCK8 assay; format: cell-based; conditions: 293T (HEK-293T) cells expressing Gluc
in vitro = conditions: human, 293T cells expressing Gluc
Description: Selectivity index, ratio of CC50 for human 293T cells expressing Gluc to EC50 for Influenza A virus WSN/33(H1N1)

cells = conditions: Influenza A virus, HEK-293T
Description: Antiviral activity against Influenza virus A/WSN/33(H1N1) infected in human 293T cells assessed as inhibition of viral replication preincubated for 2 hrs followed by viral infection measured after 24 hrs by luciferase reporter gene assay

Row | Structure (SMILES) | inhibition at 24 h, 20 µM [1] | CC50 at 24 h [2] | selectivity ratio (in vitro) | EC50 (cells)
1 | C[C@@H]1O[C@@H](O[C@H]2[C@H](O)[C@@H](O)[C@H](O[C@H]3CC[C@@]4(C)[C@@H](CC[C@]5(C)[C@@H]4CC=C4[C@@H]6CC(C)(C)CC[C@]6(CO)[C@@H](O)C[C@]45C)[C@]3(C)CO)O[C@@H]2CO[C@@H]2O[C@H](CO)[C@@H](O)[C@H](O)[C@H]2O)[C@H](O)[C@H](O)[C@H]1O | 0% | > 200 µM | > 11.2 | 17.9 µM
2 | C[C@H]1O[C@@H](O[C@H]2CC[C@]3(C)C4=CC=C5[C@@H]6CC(C)(C)CC[C@]6(CO)[C@H](O)C[C@@]5(C)[C@]4(C)CC[C@H]3[C@]2(C)CO)[C@H](O)[C@@H](O[C@@H]2O[C@H](CO)[C@@H](O)[C@H](O)[C@H]2O)[C@H]1O | 1.39% | 38.2 µM | 1.75 | 21.8 µM
3 | C[C@H]1O[C@@H](O[C@H]2CC[C@@]3(C)[C@@H](CC[C@]4(C)[C@@H]3C=CC3=C5CC(C)(C)CC[C@]5(CO)[C@@H](O)C[C@]34C)[C@]2(C)CO)[C@H](O)[C@@H](O)[C@H]1O | 0% | 24.5 µM | 2.89 | 8.48 µM
4 | C[C@H]1O[C@@H](O[C@H]2CC[C@]3(C)C4=CC=C5[C@@H]6CC(C)(C)CC[C@]6(CO)[C@@H](O)C[C@@]5(C)[C@]4(C)CC[C@H]3[C@]2(C)CO)[C@H](O)[C@@H](O[C@@H]2O[C@H](CO)[C@@H](O)[C@H](O)[C@H]2O)[C@H]1O | 1.39% | 18.9 µM | 1.19 | 15.8 µM
5 | C[C@H]1O[C@@H](O[C@H]2CC[C@@]3(C)[C@@H](CC[C@]4(C)[C@@H]3C=C[C@]35OC[C@@]6(CCC(C)(C)C[C@H]63)C(=O)C[C@]54C)[C@]2(C)CO)[C@H](O)[C@@H](O[C@@H]2O[C@H](CO)[C@@H](O)[C@H](O)[C@H]2O)[C@H]1O | 49.7% | 3.8 µM | 1.43 | 2.66 µM
6 | C[C@H]1O[C@@H](O[C@H]2CC[C@]3(C)[C@H]4C=C[C@]56OC[C@@]7(CCC(C)(C)C[C@H]75)[C@@H](O)C[C@@]6(C)[C@]4(C)CC[C@H]3C2(C)C)[C@H](O)[C@@H](O[C@@H]2O[C@H](CO)[C@@H](O)[C@H](O)[C@H]2O)[C@H]1O | 44.8% | 2.85 µM | 1.33 | 2.14 µM
7 | C[C@@H]1O[C@@H](O[C@H]2[C@H](O)[C@@H](O)[C@H](O[C@H]3CC[C@]4(C)[C@H]5C=CC6=C7CC(C)(C)CC[C@]7(CO)[C@@H](O)[C@H](O)[C@@]6(C)[C@]5(C)CC[C@H]4C3(C)C)O[C@@H]2CO[C@@H]2O[C@H](CO)[C@@H](O)[C@H](O)[C@H]2O)[C@H](O)[C@H](O)[C@H]1O | 5.14% | > 200 µM | > 19.8 | 10.1 µM
8 | C/C=C/C(=O)OC[C@H]1O[C@@H](O[C@H]2[C@@H](O)[C@@H](C)O[C@@H](O[C@H]3CC[C@@]4(C)[C@@H](CC[C@]5(C)[C@@H]4C=C[C@]46OC[C@@]7(CCC(C)(C)C[C@H]74)[C@@H](O)C[C@]65C)[C@]3(C)CO)[C@@H]2O)[C@H](O)[C@@H](O)[C@@H]1O | 44.2% | 7.02 µM | 0.79 | 8.92 µM
9 | C[C@H]1O[C@@H](O[C@H]2CC[C@@]3(C)[C@@H](CC[C@]4(C)[C@@H]3C=CC3=C5CC(C)(C)CC[C@]5(CO)C(=O)[C@H](O)[C@]34C)[C@]2(C)CO)[C@H](O)[C@@H](O[C@@H]2O[C@H](CO)[C@@H](O)[C@H](O)[C@H]2O)[C@H]1O | 0% |  |  | 
10 | C[C@H]1O[C@@H](O[C@H]2CC[C@@]3(C)[C@@H](CC[C@]4(C)[C@@H]3C=CC3=C5CC(C)(C)CC[C@]5(CO)C(=O)C[C@]34C)[C@]2(C)CO)[C@H](O)[C@@H](O[C@@H]2O[C@H](CO)[C@@H](O)[C@H](O)[C@H]2O)[C@H]1O | 9% |  |  | 
11 | C[C@@H]1O[C@@H](O[C@H]2[C@H](O)[C@@H](O)[C@H](O[C@H]3CC[C@@]4(C)[C@@H](CC[C@]5(C)[C@@H]4C=CC4=C6CC(C)(C)CC[C@]6(CO)[C@@H](O)[C@H](O)[C@]45C)[C@]3(C)CO)O[C@@H]2CO[C@@H]2O[C@H](CO)[C@@H](O)[C@H](O)[C@H]2O)[C@H](O)[C@H](O)[C@H]1O | 0% | > 200 µM | > 26.1 | 7.67 µM
12 | NC(=O)c1ncn([C@@H]2O[C@H](CO)[C@@H](O)[C@H]2O)n1 [RIBAVIRIN] | 0% | > 205 µM | > 11.4 | 17.9 µM
13 | CO[C@@H]1C=C2[C@@H]3CC(C)(C)CCC3=C(O)C(=O)[C@@]2(C)[C@]2(C)CC[C@H]3[C@](C)(CO)[C@@H](O[C@@H]4O[C@H](C)[C@H](O)[C@H](O[C@@H]5O[C@H](CO)[C@@H](O)[C@H](O)[C@H]5O)[C@H]4O)CC[C@]3(C)[C@@H]12 | 0% |  |  | 
14 | C[C@H]1O[C@@H](O[C@H]2CC[C@@]3(C)[C@@H](CC[C@]4(C)[C@@H]3C=CC3=C5C[C@@](C)(CO)CC[C@]5(CO)[C@@H](O)C[C@]34C)[C@]2(C)CO)[C@H](O)[C@@H](O[C@@H]2O[C@H](CO)[C@@H](O)[C@H](O)[C@H]2O)[C@H]1O | 5.87% |  |  | 
15 | CO[C@@H]1C=C2[C@@H]3CC(C)(C)CC[C@]3(CO)[C@@H](O)C[C@@]2(C)[C@]2(C)CC[C@H]3C(C)(C)[C@@H](O[C@@H]4O[C@H](CO[C@@H]5O[C@H](CO)[C@@H](O)[C@H](O)[C@H]5O)[C@@H](O[C@@H]5O[C@@H](C)[C@H](O)[C@@H](O)[C@H]5O)[C@H](O)[C@H]4O)CC[C@]3(C)[C@@H]12 | 0% |  |  | 
